{"source": "patent US20210113602A1", "about": "“USE OF 6-THIO-2'-DEOXYGUANOSINE (6-THIO-dG) TO TREAT MELANOMA” (The Board of Regents of the University of Texas System, priority 2018, published 2021)", "key": {"[1]": {"test_system": "non-transformed primary human fibroblasts", "assay": "Cell viability, Alamar Blue assay", "type": "cell-based", "conditions": "7 days; telomerase negative cells", "experimental": "(§1) FIGS. 2a-h. […] (FIGS. 2a-c) NRASmut melanoma cells (FIG. 2a), BRAF-V600E/NRAS mutant cells derived from melanoma patients resistant to BRAF/MEK inhibitors (FIG. 2b), or non-transformed melanocytes and fibroblasts (FIG. 2c) were treated with 6-thio-dG for 7 days. Cell viability was measured by Alamar Blue assay and calculated relative to DMSO-treated cells. (FIG. 2d) NRASmut melanoma cells and non-transformed human fibroblasts were treated with 1 or 5 μM 6-thio-dG for 7 or 14 days. Cell death was assessed by PSVUe staining. Percent of apoptotic cells is shown. (FIG. 2e) Cells were treated with DMSO or 1 μM 6-thio-dG for 14 days and telomere length was assessed by Southern blotting of TRF. Mean TRF length expressed as kilobase pairs is indicated at the bottom. (FIGS. 2f-g) Cells were treated with 1 μM 6-thio-dG for 7 days. (FIG. 2f) ROS production was measured by H2DCFDA fluorescence and normalized to MSO treated cells. (FIG. 2g) DNA damage was assessed by γH2AX staining. […] Tumor volume was measured and average tumor volume (n=4)±SEM was plotted vs. time.\n(§2) Cell culture, viability and cell death assays. […] Cell viability was assessed following 6 hr incubation with 500 μM Alamar Blue (ThermoFisher Scientific, Waltham, Mass.) using an EnVision Xcite Multilabel plate reader (Perkin Elmer, Waltham, Mass.). […]"}, "[2]": {"test_system": "non-transformed primary human melanocytes", "assay": "Cell viability, Alamar Blue assay", "type": "cell-based", "conditions": "7 days; telomerase negative cells", "experimental": "as §1, §2"}, "[3]": {"test_system": "NRAS mutant melanoma cells", "assay": "ROS production, H2DCFDA fluorescence", "type": "cell-based, human", "conditions": "1 μM for 7 days", "experimental": "FIGS. 2a-h. […] (FIGS. 2a-c) NRASmut melanoma cells (FIG. 2a), BRAF-V600E/NRAS mutant cells derived from melanoma patients resistant to BRAF/MEK inhibitors (FIG. 2b), or non-transformed melanocytes and fibroblasts (FIG. 2c) were treated with 6-thio-dG for 7 days. Cell viability was measured by Alamar Blue assay and calculated relative to DMSO-treated cells. (FIG. 2d) NRASmut melanoma cells and non-transformed human fibroblasts were treated with 1 or 5 μM 6-thio-dG for 7 or 14 days. Cell death was assessed by PSVUe staining. Percent of apoptotic cells is shown. (FIG. 2e) Cells were treated with DMSO or 1 μM 6-thio-dG for 14 days and telomere length was assessed by Southern blotting of TRF. Mean TRF length expressed as kilobase pairs is indicated at the bottom. (FIGS. 2f-g) Cells were treated with 1 μM 6-thio-dG for 7 days. (FIG. 2f) ROS production was measured by H2DCFDA fluorescence and normalized to MSO treated cells. (FIG. 2g) DNA damage was assessed by γH2AX staining. Data represent average from three independent experiments±SEM. *p<0.05; **p<0.01; ***p<0.005 in unpaired Student's t-test. […] Tumor volume was measured and average tumor volume (n=4)±SEM was plotted vs. time.\nMeasurement of reactive oxygen species. General or mitochondrial specific ROS were measured by flow cytometry H2DCFDA or MitoSoxRed (Invitrogen, Waltham, Mass.) following manufacturer's specifications."}, "NRAS mutant SKNAS cells": {"test_system": "NRAS mutant SKNAS cells", "assay": "Cell death, Annexin V/PI", "type": "cell-based, human", "conditions": "single agents or combination; 1 μM 6-thio-dG, 5 μM Gam"}, "[4]": {"test_system": "NRAS mutant melanoma cells", "assay": "Mitochondrial ROS, MitoSox Red", "type": "cell-based, human", "conditions": "1 μM 6-thio-dG for 7 days", "experimental": "FIGS. 3a-g. Telomere dysfunction enhances oxidative stress leading to upregulation of an antioxidant program. (FIGS. 3a-d) NRASmut melanoma cells were transduced with TERT shRNA (FIG. 3a, FIG. 3c) or treated with 1 μM 6-thio-dG for 7 days (FIG. 3b, FIG. 3d). mRNA levels of the indicated genes were quantified by qRT-PCR (FIG. 3a, FIG. 3b). Mitochondrial superoxide production was measured by MitoSox Red fluorescence (FIG. 3c, FIG. 3d) and expressed as fluorescence relative to vector or DMSO controls. (FIG. 3e) NRASmut melanoma cells were treated with 1 μM of 6-thio-dG for the indicated times and SOD2 protein levels measured by Western blotting. (FIG. 3f) SOD2 was silenced using shRNA. Transduced M93-047 cells were treated with DMSO or 1 μM of 6-thio-dG and cell death was assessed by Annexin V/PI straining. (FIG. 3g) M93-047 cells were transduced with a SOD2 lentiviral construct or empty vector control (pLX304). Transduced cells were treated with increasing doses (1, 2.5 and 5 μM) of 6-thio-dG for 7 days and cell death was assessed. […]\nFIGS. 4a-e. […] Cell death was assessed by Annexin V and PI staining. […] Cells were stained with Annexin V and PI and percent cell death was determined by flow cytometry. (FIGS. 4c-e) Cells were treated as in FIG. 4b and mitochondrial ROS levels were measured using Mitosox Red by FACS. […] P values were calculated using unpaired Student's t-test; * p<0.05; ***p<0.005. […]"}, "[5]": {"conditions": "in mice; cited from earlier work"}, "KRAS mutant A549 cells": {"test_system": "KRAS mutant A549 cells", "assay": "Cell death, Annexin V/PI", "type": "cell-based, human", "conditions": "1 μM 6-thio-dG, 5 μM Gam"}, "[6]": {"test_system": "NRAS mutant melanoma cells", "assay": "Cell viability, Alamar Blue assay", "type": "cell-based, human", "conditions": "7 days; relative to DMSO-treated cells", "experimental": "as §1, §2"}, "[7]": {"test_system": "BRAF-V600E/NRAS mutant cells derived from melanoma patients resistant to BRAF/MEK inhibitors", "assay": "Cell viability, Alamar Blue assay", "type": "cell-based, human", "conditions": "7 days; relative to DMSO-treated cells", "experimental": "as §1, §2"}, "KRAS mutant HCT116 cells": {"test_system": "KRAS mutant HCT116 cells", "assay": "Cell death, Annexin V/PI", "type": "cell-based, human", "conditions": "1 μM 6-thio-dG, 5 μM Gam"}}, "note": "“Also recorded” adds a separate entry of the source.", "data": [{"smiles": "Nc1nc2c(ncn2[C@H]2C[C@H](O)[C@@H](CO)O2)c(=S)[nH]1", "note": "[6-thio-dG, 6-thio-2′-deoxy-guanosine]", "values": [{"measurement": "cell viability", "setting": "[1]", "value": "did not significantly affect"}, {"measurement": "cell viability", "setting": "[2]", "value": "did not significantly affect"}, {"measurement": "ROS levels", "setting": "[3]", "value": "increased levels"}, {"measurement": "cell death", "setting": "NRAS mutant SKNAS cells", "value": "triggered significant death"}, {"measurement": "mitochondrial ROS levels", "setting": "[4]", "value": "increased mitochondrial ROS levels"}, {"measurement": "alanine aminotransferase (ALT)", "setting": "[5]", "value": "no significant effects"}, {"measurement": "aspartate aminotransferase (AST)", "setting": "[5]", "value": "no significant effects"}, {"measurement": "creatinine levels", "setting": "[5]", "value": "no significant effects"}, {"measurement": "red blood cells", "setting": "[5]", "value": "no significant effects"}, {"measurement": "white blood cells", "setting": "[5]", "value": "no significant effects"}, {"measurement": "cell death", "setting": "KRAS mutant A549 cells", "value": "did not induce substantial death"}, {"measurement": "cell viability", "setting": "[6]", "value": "impairs viability; also recorded: impaired the viability"}, {"measurement": "cell viability", "setting": "[7]", "value": "impaired the viability"}, {"measurement": "cell death", "setting": "KRAS mutant HCT116 cells", "value": "did not induce substantial death"}]}]}
